Holding throughout (format): functional, cell-based
For data set [1], the target named is T1, ATP-dependent translocase ABCB1 (Homo sapiens, UniProt P08183). The data set can be described thus: TP_TRANSPORTER: inhibition of Doxorubicin efflux (Doxorubicin: 50 uM, Chlorpyrifos: 250 uM) in MDR1-expressing B16/F10 cells. Conditions: mouse, b16-f10, 250 µM.
For data set [2], the target named is T1, ATP-dependent translocase ABCB1. Kind of data set: TP_TRANSPORTER: inhibition of Doxorubicin efflux (Doxorubicin: 50 uM, Chlorthiophos: 250 uM) in MDR1-expressing B16/F10 cells. The settings on record: mouse, b16-f10, 250 µM.
Data set [3] has the same target. The data set can be described thus: TP_TRANSPORTER: inhibition of Doxorubicin efflux (Doxorubicin: 50 uM, Clotrimazole: 100 uM) in MDR1-expressing B16/F10 cells. The settings on record: mouse, b16-f10, 100 µM.
For data set [4], the target named is T2, MDR1 (ABCB1, ATP-dependent translocase) (Homo sapiens, UniProt P08183). Kind of data set: TP_TRANSPORTER: inhibition of Doxorubicin efflux (Doxorubicin: 50 uM, Dicapthon: 250 uM) in MDR1-expressing B16/F10 cells. The settings on record: mouse, probe Doxorubicin.
The target of data set [5] is T1, ATP-dependent translocase ABCB1. Kind of data set: TP_TRANSPORTER: efflux in MDR1-expressing B16/F10 cells. The settings on record: mouse.
Data set [6] addresses T2, MDR1 (ABCB1, ATP-dependent translocase). Kind of data set: TP_TRANSPORTER: inhibition of Doxorubicin efflux (Doxorubicin: 50 uM, Endosulfan: 100 uM) in MDR1-expressing B16/F10 cells. Conditions: mouse, probe Doxorubicin.
Data set [7] deals with T1, ATP-dependent translocase ABCB1. Kind of data set: TP_TRANSPORTER: inhibition of Doxorubicin efflux (Doxorubicin: 50 uM, Fluvalinate: 250 uM) in MDR1-expressing B16/F10 cells. The settings on record: mouse, b16-f10, 250 µM.
Data set [8] deals with T2, MDR1 (ABCB1, ATP-dependent translocase). The data set can be described thus: TP_TRANSPORTER: inhibition of Doxorubicin efflux (Doxorubicin: 50 uM, Heptachlor epoxide: 250 uM) in MDR1-expressing B16/F10 cells. Conditions: mouse, probe Doxorubicin.
For data set [9] the target is unchanged. The data set can be described thus: TP_TRANSPORTER: inhibition of Doxorubicin efflux (Doxorubicin: 50 uM, Heptachlor: 250 uM) in MDR1-expressing B16/F10 cells. The settings on record: mouse, probe Doxorubicin.
Data set [10] shares this target. The data set can be described thus: TP_TRANSPORTER: inhibition of Doxorubicin efflux (Doxorubicin: 50 uM, Hydramethylnon: 8 uM) in MDR1-expressing B16/F10 cells. Conditions: mouse, probe Doxorubicin.
Data set [11] has the same target. Kind of data set: TP_TRANSPORTER: inhibition of Doxorubicin efflux (Doxorubicin: 50 uM, Chlordecone: 250 uM) in MDR1-expressing B16/F10 cells. The settings on record: mouse, probe Doxorubicin.
In data set [12] the target is T1, ATP-dependent translocase ABCB1. Kind of data set: TP_TRANSPORTER: inhibition of Doxorubicin efflux (Doxorubicin: 50 uM, […]: 250 uM) in MDR1-expressing B16/F10 cells. Conditions: mouse, b16-f10, 250 µM.
In data set [13] the target is T2, MDR1 (ABCB1, ATP-dependent translocase). The data set can be described thus: TP_TRANSPORTER: inhibition of Doxorubicin efflux (Doxorubicin: 50 uM, Parathion: 250 uM) in MDR1-expressing B16/F10 cells. Conditions: mouse, probe Doxorubicin.
In data set [14] the target is T1, ATP-dependent translocase ABCB1. The data set can be described thus: TP_TRANSPORTER: inhibition of Doxorubicin efflux (Doxorubicin: 50 uM, Phenamiphos: 250 uM) in MDR1-expressing B16/F10 cells. Conditions: mouse, b16-f10, 250 µM.
The target of data set [15] is T2, MDR1 (ABCB1, ATP-dependent translocase). The data set can be described thus: TP_TRANSPORTER: inhibition of Doxorubicin efflux (Doxorubicin: 50 uM, Tetrachlorohydroquinone: 250 uM) in MDR1-expressing B16/F10 cells. The settings on record: mouse, probe Doxorubicin.

Structures are written as SMILES. Some results are limits rather than exact numbers.

T2 sequence (P08183 whole entry): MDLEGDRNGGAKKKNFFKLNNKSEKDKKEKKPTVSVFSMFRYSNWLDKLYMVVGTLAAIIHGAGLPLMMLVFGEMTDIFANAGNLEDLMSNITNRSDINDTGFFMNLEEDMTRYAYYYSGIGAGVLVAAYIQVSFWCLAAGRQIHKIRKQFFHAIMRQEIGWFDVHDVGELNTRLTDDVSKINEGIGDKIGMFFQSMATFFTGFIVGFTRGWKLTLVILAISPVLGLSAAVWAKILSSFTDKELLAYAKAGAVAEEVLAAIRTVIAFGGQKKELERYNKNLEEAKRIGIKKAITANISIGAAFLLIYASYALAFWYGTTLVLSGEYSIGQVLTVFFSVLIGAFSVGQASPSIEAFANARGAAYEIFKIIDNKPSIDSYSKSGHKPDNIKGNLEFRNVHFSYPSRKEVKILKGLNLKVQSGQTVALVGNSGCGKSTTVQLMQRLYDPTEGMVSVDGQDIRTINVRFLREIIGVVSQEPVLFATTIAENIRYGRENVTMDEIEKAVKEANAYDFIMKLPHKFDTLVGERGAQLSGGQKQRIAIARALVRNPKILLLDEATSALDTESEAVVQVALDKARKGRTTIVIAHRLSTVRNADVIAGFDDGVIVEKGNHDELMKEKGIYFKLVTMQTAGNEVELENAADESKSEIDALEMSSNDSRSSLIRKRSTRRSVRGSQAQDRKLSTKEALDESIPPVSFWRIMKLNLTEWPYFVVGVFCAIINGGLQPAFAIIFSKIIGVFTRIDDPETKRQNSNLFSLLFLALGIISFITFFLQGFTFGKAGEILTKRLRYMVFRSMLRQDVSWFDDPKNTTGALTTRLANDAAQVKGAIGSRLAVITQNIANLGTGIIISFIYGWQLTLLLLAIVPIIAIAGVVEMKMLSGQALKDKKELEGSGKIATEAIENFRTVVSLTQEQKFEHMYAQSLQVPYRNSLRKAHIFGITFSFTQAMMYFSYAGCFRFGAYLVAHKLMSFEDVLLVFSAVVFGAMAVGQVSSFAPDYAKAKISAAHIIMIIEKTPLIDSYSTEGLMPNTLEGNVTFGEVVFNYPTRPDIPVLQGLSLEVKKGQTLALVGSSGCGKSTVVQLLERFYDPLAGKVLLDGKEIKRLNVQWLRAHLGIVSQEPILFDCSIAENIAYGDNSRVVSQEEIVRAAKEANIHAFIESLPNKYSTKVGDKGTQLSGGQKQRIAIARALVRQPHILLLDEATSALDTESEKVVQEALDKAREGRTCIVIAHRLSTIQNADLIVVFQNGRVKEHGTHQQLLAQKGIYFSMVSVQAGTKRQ
T1 sequence (P08183 whole entry): as above

As to `CCOP(=S)(OCC)Oc1nc(Cl)c(Cl)cc1Cl` [CHLORPYRIFOS], the Inhibition result in [1] was “inhibitor [51-80 % inhibition]”.

With `CCOP(=S)(OCC)Oc1cc(Cl)c(SC)cc1Cl` [CHLORTHIOPHOS], the Inhibition entry in data set [2] is “inhibitor [51-80 % inhibition]”. As to `Clc1ccccc1C(c1ccccc1)(c1ccccc1)n1ccnc1` [CLOTRIMAZOLE], in data set [3], the Inhibition result is “inhibitor [51-80 % inhibition]”.

As to `COP(=S)(OC)Oc1ccc([N+](=O)[O-])cc1Cl` [DICAPTHON], the inhibition at 250 µM in data set [4] is more than 80%. In the case of `O=S1OCC2C(CO1)C1(Cl)C(Cl)=C(Cl)C2(Cl)C1(Cl)Cl` (stereo not given) [ENDOSULFAN], the Activity entry in data set [5] is “substrate [+]”. This molecule came in with an inhibition at 100 µM in data set [6] of more than 80%. For `CC(C)[C@H](Nc1ccc(C(F)(F)F)cc1Cl)C(=O)OC(C#N)c1cccc(Oc2ccccc2)c1` (stereo not given in full) [FLUVALINATE], in [7], the Inhibition result is “inhibitor [31-50 % inhibition]”. `ClC1=C(Cl)C2(Cl)C3C4OC4C(Cl)C3C1(Cl)C2(Cl)Cl` (stereo not given) [HEPTACHLOR EPOXIDE] yielded an inhibition at 250 µM in [8] of more than 80%. Take `ClC1=C(Cl)C2(Cl)C3C(Cl)C=CC3C1(Cl)C2(Cl)Cl` (stereo not given) [HEPTACHLOR]: the inhibition at 250 µM in data set [9] was more than 80%. In turn, `CC1(C)CNC(=NN=C(/C=C/c2ccc(C(F)(F)F)cc2)/C=C/c2ccc(C(F)(F)F)cc2)NC1` [HYDRAMETHYLNON] yielded an inhibition at 8 µM in data set [10] of more than 80%.

The molecule `O=C1C2(Cl)C3(Cl)C4(Cl)C(Cl)(Cl)C5(Cl)C3(Cl)C1(Cl)C5(Cl)C24Cl` (stereo not given) [KEPONE] yielded an inhibition at 250 µM in [11] of more than 80%.

As for `COP(=S)(Oc1cc(Cl)c(Br)cc1Cl)c1ccccc1` (stereo not given) [LEPTOPHOS], in data set [12], the Inhibition result is “inhibitor [51-80 % inhibition]”.

The molecule `CCOP(=S)(OCC)Oc1ccc([N+](=O)[O-])cc1` [PARATHION] registered an inhibition at 250 µM in data set [13] of more than 80%.

Take `CCOP(=O)(NC(C)C)Oc1ccc(SC)c(C)c1` (stereo not given) [PHENAMIPHOS]: in data set [14], the Inhibition result is “inhibitor [51-80 % inhibition]”. `Oc1c(Cl)c(Cl)c(O)c(Cl)c1Cl` [TETRACHLOROHYDROQUINONE] came in with an inhibition at 250 µM in data set [15] of more than 80%.

In general, inhibition refers to the drop in the measured response relative to a control, in per cent. A higher inhibition goes with a response far below the control.

Values taken from ChEMBL document CHEMBL2073776, “Interaction of structurally diverse pesticides with the human MDR1 gene product P-glycoprotein” (Toxicol Appl Pharmacol, 1996).
